The values that follow come from patent publication US9795140B2, “Molecules having pesticidal utility, and intermediates, compositions, and processes, related thereto” (priority 2015, dated 2017).

Format in all cases: in vivo
Data set [1] has as its system Cabbage Looper (Trichoplusia ni, TRIPNI). In words: Bioassay on Cabbage Looper (CL), 128-well diet tray assay. To be noted: 168 h, 50 μg/cm^2 on artificial diet, second instar larvae, 25° C., five to seven days, average of eight wells, read-out: CL % Control (or Mortality) rating. The gist of the method: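 Second-instar T. ni larvae (one to five per well) were placed on artificial diet treated with 50 μg/cm^2 compound, applied in 90:10 acetone-water and dried. Trays were held five to seven days at 25 °C under 14:10 light-dark. Percent mortality per well was averaged over eight wells.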

Data set [2] has as its system Beet Armyworm (Spodoptera exigua, LAPHEG). In words: Bioassay on Beet Armyworm (BAW), 128-well diet tray assay. To be noted: 168 h, 50 μg/cm^2 on artificial diet, second instar larvae, 25° C., five to seven days, average of eight wells, read-out: BAW % Control (or Mortality) rating. The method, boiled down: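 Artificial diet surface-treated with 50 μg/cm^2 test molecule in 90:10 acetone-water, dried, then infested with one to five second instar larvae per well. Held covered and vented at 25° C., 14:10 light-dark for five to seven days; percent mortality recorded per well and averaged over eight wells.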

Data set [3] deals with Yellow Fever Mosquito (Aedes aegypti, AEDSAE). In words: Bioassay on Yellow Fever Mosquito (YFM) larvae, 96-well plate. The following applies: about 1 day-old larvae, room temperature, 3 days, scored on mortality. The gist of the method: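 Aedes aegypti larvae (about 1 day old) in liver-powder water were added to plates dispensed from DMSO master plates (4000 ppm stock) diluted with 90:10 water/acetone; six replicate plates per master. Lidded plates were held at room temperature for 3 days, then each well was scored for mortality.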

What is called mortality is the share of the test organisms that died.

`O=C(NCC(F)(F)F)c1cc(NC(=O)[C@H]2[C@H](c3cc(F)cc(C(F)(F)F)c3)C2(Cl)Cl)ccc1Cl` (relative stereo) [F122, 2-Chloro-5-(trans-2,2-dichloro-3-(3-fluoro-5-(trifluoromethyl)phenyl)cyclopropane-1-carboxamido)-N-(2,2,2-trifluoroethyl)benzamide]: the mortality at 50 µg/cm2 in data set [1] and in data set [2] was 50 to 100% throughout. Further, in data set [3], the “YFM % Control (or Mortality) rating” value is on record as “A (80-100)”.

Turning to `O=C(NCC(F)(F)F)c1cc(NC(=O)[C@H]2[C@H](c3cc(F)cc(Br)c3)C2(Cl)Cl)ccc1Cl` (relative stereo) [F123, 5-(trans-3-(3-Bromo-5-fluorophenyl)-2,2-dichlorocyclopropane-1-carboxamido)-2-chloro-N-(2,2,2-trifluoroethyl)benzamide], the mortality at 50 µg/cm2 in data set [1] and in data set [2] was 50 to 100% throughout. The “YFM % Control (or Mortality) rating” value in data set [3] was “A (80-100)”.

For the molecule `O=C(NCC(F)(F)F)c1cc(NC(=O)[C@H]2[C@H](c3cc(Br)cc(C(F)(F)F)c3)C2(Cl)Cl)ccc1Cl` (relative stereo) [F124, 5-(trans-3-(3-Bromo-5-(trifluoromethyl)phenyl)-2,2-dichlorocyclopropane-1-carboxamido)-2-chloro-N-(2,2,2-trifluoroethyl)benzamide], the mortality at 50 µg/cm2 in data set [1] and in data set [2] was 50 to 100% throughout. For the same molecule, the “YFM % Control (or Mortality) rating” value in data set [3] was “A (80-100)”.

Regarding `O=C(NCC(F)(F)F)c1cc(NC(=O)[C@H]2[C@H](c3cc(Cl)cc(C(F)F)c3)C2(Cl)Cl)ccc1Cl` (relative stereo) [F128, 2-Chloro-5-(trans-2,2-dichloro-3-(3-chloro-5-(difluoromethyl)phenyl)cyclopropane-1-carboxamido)-N-(2,2,2-trifluoroethyl)benzamide], the mortality at 50 µg/cm2 in data set [1] and in data set [2] was 50 to 100% each time. Also, in data set [3], the “YFM % Control (or Mortality) rating” value is on record as “A (80-100)”.

As for `O=C(NCC(F)(F)F)c1cc(NC(=O)[C@H]2[C@H](c3ccc(Cl)c(C(F)F)c3)C2(Cl)Cl)ccc1Cl` (relative stereo) [F129, 2-Chloro-5-(trans-2,2-dichloro-3-(4-chloro-3-(difluoromethyl)phenyl)cyclopropane-1-carboxamido)-N-(2,2,2-trifluoroethyl)benzamide], the mortality at 50 µg/cm2 in data set [1] and in data set [2] was 50 to 100% each time. In addition, the “YFM % Control (or Mortality) rating” value in data set [3] is “A (80-100)”.

Turning to `O=C(NCC(F)(F)F)c1cc(NC(=O)[C@H]2[C@H](c3cc(F)cc(C(F)F)c3)C2(Cl)Cl)ccc1Cl` (relative stereo) [F130, 2-Chloro-5-(trans-2,2-dichloro-3-(3-(difluoromethyl)-5-fluorophenyl)cyclopropane-1-carboxamido)-N-(2,2,2-trifluoroethyl)benzamide], the mortality at 50 µg/cm2 in data set [1] and in data set [2] was 50 to 100% each time. Further, the “YFM % Control (or Mortality) rating” value in data set [3] is “A (80-100)”.

Take `O=C(NCC(F)(F)F)c1cc(NC(=O)[C@H]2[C@H](c3ccc(F)c(C(F)F)c3)C2(Cl)Cl)ccc1Cl` (relative stereo) [F131, 2-Chloro-5-(trans-2,2-dichloro-3-(3-(difluoromethyl)-4-fluorophenyl)cyclopropane-1-carboxamido)-N-(2,2,2-trifluoroethyl)benzamide]: the mortality at 50 µg/cm2 in data set [1] and in data set [2] was 50 to 100% in each case. The “YFM % Control (or Mortality) rating” value in data set [3] is reported as “A (80-100)”.

Turning to `O=C(NCC(F)(F)F)c1cc(NC(=O)[C@H]2[C@H](c3ccc(C(F)F)c(Cl)c3)C2(Cl)Cl)ccc1Cl` (relative stereo) [F132, 2-Chloro-5-(trans-2,2-dichloro-3-(3-chloro-4-(difluoromethyl)phenyl)cyclopropane-1-carboxamido)-N-(2,2,2-trifluoroethyl)benzamide], the mortality at 50 µg/cm2 in data set [1] and in data set [2] was 50 to 100% throughout. Also, in data set [3], the “YFM % Control (or Mortality) rating” value is given as “A (80-100)”.

Regarding `O=C(NCC(F)(F)F)c1cc(NC(=O)[C@H]2[C@H](c3ccc(C(F)F)c(F)c3)C2(Cl)Cl)ccc1Cl` (relative stereo) [F133, 2-Chloro-5-(trans-2,2-dichloro-3-(4-(difluoromethyl)-3-fluorophenyl)cyclopropane-1-carboxamido)-N-(2,2,2-trifluoroethyl)benzamide], the mortality at 50 µg/cm2 in data set [1] and in data set [2] was 50 to 100% in each case. In data set [3], the “YFM % Control (or Mortality) rating” value is given as “A (80-100)”.

On to `O=C(NCC(F)(F)F)c1cc(NC(=O)[C@H]2[C@H](c3cccc(C(F)F)c3)C2(Cl)Cl)ccc1Cl` (relative stereo) [F134, 2-Chloro-5-(trans-2,2-dichloro-3-(3-(difluoromethyl)phenyl)cyclopropane-1-carboxamido)-N-(2,2,2-trifluoroethyl)benzamide], for which the mortality at 50 µg/cm2 in data set [1] and in data set [2] was 50 to 100% each time. Moreover, the “YFM % Control (or Mortality) rating” value in data set [3] is listed as “A (80-100)”.

As to `O=C(NCC(F)(F)F)c1cc(NC(=O)[C@H]2[C@H](c3ccc(C(F)F)cc3)C2(Cl)Cl)ccc1Cl` (relative stereo) [F135, 2-Chloro-5-(trans-2,2-dichloro-3-(4-(difluoromethyl)phenyl)cyclopropane-1-carboxamido)-N-(2,2,2-trifluoroethyl)benzamide], the mortality at 50 µg/cm2 was 50 to 100% in data set [1] and 0% in data set [2]. In addition, in data set [3], the “YFM % Control (or Mortality) rating” value is “A (80-100)”.

On to `O=C(NCC(F)(F)F)c1cc(NC(=O)[C@H]2[C@H](c3cc(Cl)cc(Cl)c3)C2(Br)Br)ccc1Cl` (relative stereo) [PF1, trans-2-Chloro-5-(2,2-dibromo-3-(3,5-dichlorophenyl)cyclopropane-1-carboxamido)-N-(2,2,2-trifluoroethyl)benzamide], for which the mortality at 50 µg/cm2 in data set [1] and in data set [2] was 50 to 100% each time. The “YFM % Control (or Mortality) rating” value in data set [3] is given as “D (No activity noticed in this bioassay)”.

In the case of `O=C(NCCSCc1ccco1)c1cc(NC(=O)[C@H]2[C@H](c3cc(Cl)cc(Cl)c3)C2(Cl)Cl)ccc1Cl` (relative stereo) [PF9, trans-2-Chloro-5-(2,2-dichloro-3-(3,5-dichlorophenyl)cyclopropane-1-carboxamido)-N-(2-((furan-2-ylmethyl)thio)ethyl)benzamide], the mortality at 50 µg/cm2 in data set [1] and in data set [2] was 50 to 100% each time. The “YFM % Control (or Mortality) rating” value in data set [3] is listed as “A (80-100)”.

Regarding `COC(=O)C(CCSC)NC(=O)c1cc(NC(=O)[C@H]2[C@H](c3cc(Cl)cc(Cl)c3)C2(Cl)Cl)ccc1Cl` (relative stereo) [PF10, trans-Methyl-2-(2-chloro-5-(2,2-dichloro-3-(3,5-dichlorophenyl)cyclopropane-1-carboxamido)benzamido)-4-(methylthio)butanoate], the mortality at 50 µg/cm2 in data set [1] and in data set [2] was 50 to 100% each time. The “YFM % Control (or Mortality) rating” value in data set [3] was “B (More than 0-Less than 80)”.

Consider `O=C(NCc1ccc(-n2cncn2)cc1)c1cc(NC(=O)[C@H]2[C@H](c3cc(Cl)cc(Cl)c3)C2(Cl)Cl)ccc1Cl` (relative stereo) [PF11, trans-N-(4-(1H-1,2,4-Triazol-1-yl)benzyl)-2-chloro-5-(2,2-dichloro-3-(3,5-dichlorophenyl)cyclopropane-1-carboxamido)benzamide], for which the mortality at 50 µg/cm2 in data set [1] and in data set [2] was 50 to 100% each time. Besides, the “YFM % Control (or Mortality) rating” value in data set [3] is listed as “A (80-100)”.

In the case of `O=C(NCCc1nccs1)c1cc(NC(=O)[C@H]2[C@H](c3cc(Cl)cc(Cl)c3)C2(Cl)Cl)ccc1Cl` (relative stereo) [PF12, trans-2-Chloro-5-(2,2-dichloro-3-(3,5-dichlorophenyl)cyclopropane-1-carboxamido)-N-(2-(thiazol-2-yl)ethyl)benzamide], the mortality at 50 µg/cm2 in data set [1] and in data set [2] was 50 to 100% each time. The “YFM % Control (or Mortality) rating” value in data set [3] is “A (80-100)”.

As to `O=C(NCCn1cccn1)c1cc(NC(=O)[C@H]2[C@H](c3cc(Cl)cc(Cl)c3)C2(Cl)Cl)ccc1Cl` (relative stereo) [PF13, trans-N-(2-(1H-Pyrazol-1-yl)ethyl)-2-chloro-5-(2,2-dichloro-3-(3,5-dichlorophenyl)cyclopropane-1-carboxamido)benzamide], the mortality at 50 µg/cm2 in data set [1] and in data set [2] was 50 to 100% in each case. Moreover, the “YFM % Control (or Mortality) rating” value in data set [3] was “A (80-100)”.

On to `NS(=O)(=O)CCCNC(=O)c1cc(NC(=O)[C@H]2[C@H](c3cc(Cl)cc(Cl)c3)C2(Cl)Cl)ccc1Cl` (relative stereo) [PF14, trans-2-Chloro-5-(2,2-dichloro-3-(3,5-dichlorophenyl)cyclopropane-1-carboxamido)-N-(3-sulfamoylpropyl)benzamide], for which the mortality at 50 µg/cm2 in data set [1] was in the range of 50 to 100%; in data set [2], 0 to 50%. Besides, the “YFM % Control (or Mortality) rating” value in data set [3] is listed as “D (No activity noticed in this bioassay)”.

Turning to `O=C(NCCc1csc2ccccc12)c1cc(NC(=O)[C@H]2[C@H](c3cc(Cl)cc(Cl)c3)C2(Cl)Cl)ccc1Cl` (relative stereo) [PF15, trans-N-(2-(Benzo[b]thiophen-3-yl)ethyl)-2-chloro-5-(2,2-dichloro-3-(3,5-dichlorophenyl)cyclopropane-1-carboxamido)benzamide], the mortality at 50 µg/cm2 in data set [1] and in data set [2] was 50 to 100% each time. The “YFM % Control (or Mortality) rating” value in data set [3] was “A (80-100)”.
